Experimental data from PubChem BioAssay AID328 (DTP/NCI, 2004).
“And” between values parts separate entries of the source, which are not always exact repeats. Identical values can stand only once. Toxic doses and inconclusive results are not listed. The calls were made as follows: active = survival T/C of 150% or more; inactive = T/C below 125% in these data.

Experiments:
[1] = tested on: BDF1 mice, P388 leukemia ip, median survival T/C; assay: NCI In Vivo Anticancer Drug Screen. Data for tumor model P388 Leukemia (intraperitoneal) in B6D2F1 (BDF1) mice; conditions: endpoint: median survival time, higher = longer survival
Procedure, shortened: (§1)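 T/C = treated-group survival ÷ vehicle-control survival; tumour transplanted into mice before dosing.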

[2] = tested on: BDF1 mice, P388 leukemia ip; assay: as above; conditions: endpoint: mean survival time, schedule: Q01DX009 (ip), higher = longer survival
Procedure, shortened: as §1

Measured: T/C

CNC(C)(C)C(SSSC(c1ccc(Cl)cc1)C(C)(C)NC)c1ccc(Cl)cc1 (stereo not drawn)
inactive: [1]; dose: 12.5 mg/kg/injection, schedule: Q04DX003 (ip), vehicle: saline with Tween-80 101 % of control | [1]; dose: 25.0 mg/kg/injection, schedule: Q01DX009 (ip), vehicle: saline with Tween-80 102 % of control | [1]; dose: 25.0 mg/kg/injection, schedule: Q04DX003 (ip), vehicle: saline with Tween-80 100 % of control | [1]; dose: 50.0 mg/kg/injection, schedule: Q01DX009 (ip), vehicle: saline with Tween-80 94 % of control | [1]; dose: 50.0 mg/kg/injection, schedule: Q04DX003 (ip), vehicle: saline with Tween-80 95 % of control | [2]; dose: 6.25 mg/kg/injection, vehicle: saline with Tween-80 95 % of control | [2]; dose: 12.5 mg/kg/injection, vehicle: saline with Tween-80 114 % of control | [2]; dose: 25.0 mg/kg/injection, vehicle: saline with Tween-80 103 % of control

CN(C)Cc1ccc(C(C)(C)C)cc1
inactive: [1]; dose: 6.25 mg/kg/injection, schedule: Q04DX003 (ip), vehicle: water 98 % of control | [1]; dose: 12.5 mg/kg/injection, schedule: Q04DX003 (ip), vehicle: water 112 % of control | [1]; dose: 25.0 mg/kg/injection, schedule: Q04DX003 (ip), vehicle: water 106 % of control | [1]; dose: 50.0 mg/kg/injection, schedule: Q04DX003 (ip), vehicle: water 106 % of control | [1]; dose: 100.0 mg/kg/injection, schedule: Q04DX003 (ip), vehicle: water 99 % of control and 100 % of control | [2]; dose: 3.12 mg/kg/injection, vehicle: water 108 % of control | [2]; dose: 6.25 mg/kg/injection, vehicle: water 100 % of control | [2]; dose: 12.5 mg/kg/injection, vehicle: water 102 % of control | [2]; dose: 25.0 mg/kg/injection, vehicle: water 96 % of control | [2]; dose: 100.0 mg/kg/injection, vehicle: water 95 % of control
